Converted amounts (≈) assume the structure as drawn.
Key:
C. albicans 5112 [1] = experiment: Cell count and viability assay (Muse cell analyser); type: cell-based, Candida albicans; details: C. albicans 5112, hydrogen peroxide 10 mM 1:1 with inoculum, 24 h; untreated 86.8%
Experimental: (§1) Quantification of Live/Dead C. albicans cells in response to C1 was carried out. The actual count of viable and dead cells of C. albicans by treatment of C1 was monitored by Cell Count and Viability assay kit. An inoculum (1×10^6 cells/mL) of both Flz sensitive (C. albicans 4251) and resistant (C. albicans 5112) C. albicans strains was prepared followed by treatment with various concentrations of C1 (0.5×MIC, 1×MIC and MFC) for 24 h at 37° C. and 150 rpm. For the negative control, only inoculum treated with 1% DMSO was used and for the positive control, hydrogen peroxide (10 mM) was used in a 1:1 ratio with the inoculum. Following incubation, the cells were then washed in PBS and centrifuged at 4000 rpm for 5 minutes at 4° C. and the final pellet was resuspended in PBS. The Cell Count and Viability assay samples were prepared by mixing 190 μL of Luminex Cell Viability Dilution Buffer and 10 μL of the sample in a 1.5 mL Eppendorf tube and incubated in the dark for 5 min at room temperature. All samples were analysed by a Guava® Muse® Cell Analyser (Luminex A DiaSorin Company, USA).

C. albicans 4251 [2] = experiment: as above; type: cell-based, Candida albicans; details: C. albicans 4251, hydrogen peroxide 10 mM 1:1 with inoculum, 24 h; untreated 90.9%
Experimental: as §1

C. albicans 4251 [3] = experiment: Cell cycle analysis (Muse cell analyser); type: cell-based, Candida albicans; details: 10 mM H2O2 positive control; stated for C. albicans without naming a strain
Experimental: The effect of C1 on the cell cycle of C. albicans 4251 and C. albicans 5112 was determined using Cell Cycle kit MCH100106 in a Guava® Muse® Cell Analyser according to the manufacturer's instructions. The cells of the C. albicans (1×10^6 cells/mL) were exposed to C1 for 4 h at different concentrations (0.5×MIC and 1×MIC). Each sample was rinsed with fresh PBS after exposure, and the pellet was fixed in 1 mL of 70% ice-cold ethanol (Sigma Aldrich Co., USA). The Cell Cycle assay was prepared by mixing the 100 μL of Luminex® Cell Cycle dye and 100 μL of the prewashed fixed cells and incubated in the dark for 30 minutes at room temperature. All samples were analysed by a Guava® Muse® Cell Analyser (Luminex® A DiaSorin Company, USA). During the experiment, both the negative (without treatment) and positive control (10 mM H2O2 treated) were used.

C. albicans 5112 [4] = experiment: JC-10 mitochondrial membrane potential assay; type: cell-based, Candida albicans; details: C. albicans 5112, H2O2 treated positive control; negative control 2.92
Experimental: (§2) To examine the effect of C1 on the induction of cellular apoptosis in C. albicans cells, crucial apoptotic markers were observed. For this purpose, C. albicans 4251 and C. albicans 5112 cells were subjected to protoplast preparation by utilizing a method described previously by Srivastava et al. in 2020 through their research study. […] Later on, the cells were washed and incubated for 10 min at room temperature in protoplast buffer-1 (1M sorbitol, 0.05M tris base, 0.01M MgCl2, 0.03M DTT, pH 7.4). The cells were spun at 1500 rpm for 5 min and the pellet was resuspended in protoplast buffer-2 (1M sorbitol, 0.05M tris base, 0.01M MgCl2, 0.001M DTT, pH 7.4) supplemented with […] enzyme (1 μg/mL) and incubated for 1 h at room temperature. Afterwards, the cell suspension was again centrifuged, and the pellet was resuspended and incubated for 20 min at room temperature in protoplast buffer-3 (1M sorbitol, 0.05M tris base, 0.01M MgCl2, pH 7.4). A final washing (1500 rpm for 5 min) was given to the cells and the pellet consisting of C. albicans protoplasts was resuspended in fresh PBS and was stored at 4° C. until further use. Measurement of mitochondrial membrane potential in C. albicans was carried out and the potential of C1 in destabilising mitochondrial membrane potential (Δψm) in C. albicans was established by JC-10 mitochondrial membrane potential assay kit (Abeam, Cambridge, UK). The experiment was performed according to manufacturer instructions. 90 μL of prepared protoplast of C. albicans 4251 and C. albicans 5112 was added to a 96-well microplate (with black walls and clear bottom), followed by the addition of 50 μL/well of JC-10 dye-loading solution. The microplate was incubated for 1 hour at 37° C. in the dark. This was followed by the addition of 50 μL/well of assay buffer B. The microplate was then immediately centrifuged at 800 rpm for 2 minutes. The fluorescence intensity was monitored at an Ex/Em=490/530 nm (present in apoptotic cells, monomeric form and green fluorescence; represented as X) and 540/590 nm (present in live cells, dye aggregates and red fluorescence; represented as Y) using a SpectraMax® ID3 Multimode Plate Reader (Molecular Devices, LLC., USA). The ratio between the aggregate and monomeric forms was measured to find the change in mitochondrial membrane potential. The mitochondrial membrane depolarization is indicated by decreasing ratio values.

C. albicans 4251 [5] = experiment: JC-10 mitochondrial membrane potential assay; type: cell-based, Candida albicans; details: C. albicans 4251, H2O2 treated positive control; negative control 2.65
Experimental: as §2

C. albicans 4106 = experiment: Broth microdilution MIC/MFC (CLSI M27-A4); type: cell-based, Candida albicans; details: Candida albicans; C. albicans 4106 (Flz resistant), 37° C., 24 h; read-out: Median MIC
Experimental: (§3) In this work, nine strains of C. albicans procured from Charlotte Maxeke Johannesburg Academic Hospital under ethical clearance number M000402 were employed (Table 1). All the C. albicans strains were preserved at −70° C. deep freezer in 50% (v/v) anhydrous glycerol (Sigma-Aldrich St. Louis, MO, U.S.A.). For conducting experiments, cultures were revived in Sabouraud Dextrose broth (SDB; Merck, Germany) at 37° C. and 120 rpm for 24 h. Additionally, the RPMI 1640 medium and MOPS (Sigma-Aldrich, USA) were prepared as described by the Clinical and Laboratory Standards Institute (CLSI).
(§4) The activity of C1 against Candida species (n=9) was first estimated in terms of minimum inhibitory concentration (MIC) and minimum fungicidal concentration (MFC). […] Briefly, stock solutions of Flz (used as reference; Sigma-Aldrich St. Louis, MO, U.S.A.) and the synthesized compound was prepared in 1% dimethyl sulfoxide (DMSO; Sigma-Aldrich St. Louis, MO, U.S.A.) and the test concentrations were formulated in RPMI 1640-MOPS medium. A two-fold dilution of the compound (1250-0.61 μg/mL) and reference drug (128-0.062 μg/mL) was prepared in 96 well plates which were then seeded with C. albicans inoculum (1×10^6 cells/mL) and incubated at 37° C. for 24 h. In every set of experiments, sterility control, 1% DMSO as negative control and growth control were included. Growth was quantified by reading the optical density at 620 nm in a UV-1800 SHIMADZU spectrophotometer (Shimadzu Corporation, Japan). The MIC was determined as the lowest concentration that inhibited the growth of Candida strains. To determine MFC, each well without visible growth was subcultured onto the SDA plates for 24 hours at 37° C. The lowest concentration killing ≥99.9% of Candida was taken as the MFC value of the test compound.

C. albicans 4324 = experiment: Broth microdilution MIC/MFC (CLSI M27-A4); type: cell-based, Candida albicans; details: Candida albicans; C. albicans 4324 (Flz resistant), 37° C., 24 h; read-out: Median MIC
Experimental: as §3, §4

C. albicans 4554 = experiment: Broth microdilution MIC/MFC (CLSI M27-A4); type: cell-based, Candida albicans; details: Candida albicans; C. albicans 4554 (Flz sensitive), 37° C., 24 h; read-out: Median MIC
Experimental: as §3, §4

C. albicans 4085 = experiment: Broth microdilution MIC/MFC (CLSI M27-A4); type: cell-based, Candida albicans; details: Candida albicans; C. albicans 4085 (Flz resistant), 37° C., 24 h; read-out: Median MIC
Experimental: as §3, §4

C. albicans 5112 [6] = experiment: Broth microdilution MIC/MFC (CLSI M27-A4); type: cell-based, Candida albicans; details: Candida albicans; C. albicans 5112 (Flz resistant), 37° C., 24 h; read-out: Median MIC
Experimental: as §3, §4

C. albicans 4251 [7] = experiment: Broth microdilution MIC/MFC (CLSI M27-A4); type: cell-based, Candida albicans; details: Candida albicans; C. albicans 4251 (Flz sensitive), 37° C., 24 h; read-out: Median MIC
Experimental: as §3, §4

C. albicans SC5314 = experiment: Broth microdilution MIC/MFC (CLSI M27-A4); type: cell-based, Candida albicans; details: Candida albicans; C. albicans SC5314 (control), 37° C., 24 h; read-out: Median MIC
Experimental: as §3, §4

C. albicans 4180 = experiment: Broth microdilution MIC/MFC (CLSI M27-A4); type: cell-based, Candida albicans; details: Candida albicans; C. albicans 4180 (Flz sensitive), 37° C., 24 h; read-out: Median MIC
Experimental: as §3, §4

C. albicans 4175 = experiment: Broth microdilution MIC/MFC (CLSI M27-A4); type: cell-based, Candida albicans; details: Candida albicans; C. albicans 4175 (Flz sensitive), 37° C., 24 h; read-out: Median MIC
Experimental: as §3, §4

OO [Complex H2O2, hydrogen peroxide, reference compound]
live cells (C. albicans 5112 [1]): 26.1% | live cells (C. albicans 4251 [2]): 19.9% | impact on the cell cycle (C. albicans 4251 [3]): not much impact | average fluorescence ratio JC-10 aggregates/JC-10 monomers (C. albicans 5112 [4]): 2.75 | average fluorescence ratio JC-10 aggregates/JC-10 monomers (C. albicans 4251 [5]): 2.5

OC(Cn1cncn1)(Cn1cncn1)c1ccc(F)cc1F [Flz, fluconazole, reference compound]
MIC (C. albicans 4106): 32 µg/mL (≈ 104 µM) | MIC (C. albicans 4324): 32 µg/mL (≈ 104 µM) | MIC (C. albicans 4554): 0.25 µg/mL (≈ 0.816 µM) | MIC (C. albicans 4085): 16 µg/mL (≈ 52.2 µM) | MIC (C. albicans 5112 [6]): 64 µg/mL (≈ 209 µM) | MIC (C. albicans 4251 [7]): 0.5 µg/mL (≈ 1.63 µM) | MIC (C. albicans SC5314): 0.25 µg/mL (≈ 0.816 µM) | MIC (C. albicans 4180): 0.25 µg/mL (≈ 0.816 µM) | MIC (C. albicans 4175): 0.25 µg/mL (≈ 0.816 µM)

Oc1ccc(Br)cc1/C=N/c1ccc2c(c1)OCCO2 [L, (E)-4-bromo-2-{[(2,3-dihydrobenzo[b][1,4]dioxin-6-yl)imino]methyl}phenol]
melting point: 119 °C

From patent US11780868B1, “Homoleptic metal coordination complexes as antifungal agents” (King Abdulaziz University, priority 2023, dated 2023)
